The record followed here is US20170166558A1, “O-GLCNAC TRANSFERASE (OGT) INHIBITORS AND USES THEREOF” (President and Fellows of Harvard College, priority 2014, published 2017).

In assay [1] the test system is cell surface glycans of CHO cells. Description: Lectin blots of cell surface glycans of CHO cells. Format: cell-based, Chinese hamster. The settings on record: 50 μM, 24 hours. On the procedure:
Lectin blots were performed with the CHO-K1 cell lysate as prepared above. […] The biotin label on the lectins was visualized with incubation with Streptavidin-HRP (Pierce) followed by ECL detection and imaging.

Another assay addresses T1, ncOGT (Homo sapiens, UniProt O15294).
T1 construct: full length human OGT (ncOGT); made in house
T1 sequence (O15294 1-1046): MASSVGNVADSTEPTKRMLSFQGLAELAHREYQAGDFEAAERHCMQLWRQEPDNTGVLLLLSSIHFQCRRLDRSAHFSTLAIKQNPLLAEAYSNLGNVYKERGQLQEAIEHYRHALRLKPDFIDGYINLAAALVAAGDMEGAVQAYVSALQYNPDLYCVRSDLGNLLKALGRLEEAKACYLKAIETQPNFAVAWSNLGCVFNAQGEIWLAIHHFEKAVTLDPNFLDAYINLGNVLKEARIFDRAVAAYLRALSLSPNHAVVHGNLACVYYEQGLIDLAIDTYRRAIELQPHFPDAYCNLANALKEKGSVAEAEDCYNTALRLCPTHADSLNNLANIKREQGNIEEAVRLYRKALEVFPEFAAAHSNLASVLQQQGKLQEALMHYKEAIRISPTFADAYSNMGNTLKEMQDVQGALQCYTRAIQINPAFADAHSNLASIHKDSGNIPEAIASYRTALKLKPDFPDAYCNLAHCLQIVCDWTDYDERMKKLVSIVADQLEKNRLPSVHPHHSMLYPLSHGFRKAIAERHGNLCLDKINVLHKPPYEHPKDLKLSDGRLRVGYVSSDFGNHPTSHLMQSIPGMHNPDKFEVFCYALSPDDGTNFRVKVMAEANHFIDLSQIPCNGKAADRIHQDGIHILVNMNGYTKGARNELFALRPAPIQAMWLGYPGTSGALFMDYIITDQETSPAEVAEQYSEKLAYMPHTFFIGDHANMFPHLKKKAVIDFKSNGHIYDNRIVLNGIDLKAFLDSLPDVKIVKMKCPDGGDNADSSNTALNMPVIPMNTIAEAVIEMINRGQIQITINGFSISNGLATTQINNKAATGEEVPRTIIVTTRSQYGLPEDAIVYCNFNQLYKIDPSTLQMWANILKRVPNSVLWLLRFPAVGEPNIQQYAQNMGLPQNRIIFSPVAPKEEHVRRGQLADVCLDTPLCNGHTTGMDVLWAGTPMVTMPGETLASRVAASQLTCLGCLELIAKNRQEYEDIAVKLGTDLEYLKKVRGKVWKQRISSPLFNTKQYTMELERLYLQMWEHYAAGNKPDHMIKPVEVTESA
The assay is described as follows: Radiometric capture assay with Nup62 acceptor and UDP-14C-GlcNAc. The format is biochemical. On the procedure: Radiometric capture assay: Nucleoporin 62 (Nup62) was used as a model substrate. IC50 values of the both inhibitors were determined at range of 0 to 100 μM (eight point, duplicate). OGT antagonists were tested in a reaction mixture containing 18 μM Nup62, 6 μM UDP-^14C-GlcNAc, 100 nM ncOGT, and lx phosphate-buffered saline (1× PBS) (137 mM NaCl, 2.7 mM KCl, 10 mM Na2HPO4, and 1.8 mM KH2PO4, pH 7.4). The Nup62 glycosylation reactions were run for 15 min at 37° C. Reaction mixtures were subsequently quenched by spottinged on Whatman® Protran® nitrocellulose membrane, washed with 1× PBS three times for 15 minutes each. The membranes were air dried and then counted by liquid scintillation counting. The data were analyzed by Microsoft® Excel and Prism 6 (Graphpad®). Robust non-linear variable slope regressions were generated to determine the IC50 and Hill slope values.
In order to evaluate the mode of inhibition of OSMI-1 and UDP-5S-GlcNAc, a series of experiments, as outlined above, were performed with Nup62 as glycosylation substrate. The inhibition test of OSMI-1 was performed by varying the UDP-^14C-GlcNAc concentration from 0 to 0.25 mM while holding concentration of Nup62 constant at 10 μM with four different concentrations of OSMI-1 (0 to 2 μM) in 1× PBS with 100 nM ncOGT and with fixed and saturating concentrations of GST-Nup62 acceptor. The inhibition test of UDP-5S-GlcNAc was performed by varying the UDP-^14C-GlcNAc concentration from 0 to 1 mM while holding concentration of Nup62 constant at 10 μM with five different concentrations of UDP-5S-GlcNAc (0, 1, 5, 10, and 15 μM) in 1× PBS with 100 nM ncOGT. Each reaction was spotted on Whatman® grade P81 ion exchange chromatography paper circles, washed with 1× PBS three times for 15 minutes each. The membranes were air dried and then counted by liquid scintillation counting. Each assay was duplicated in parallel. The data were analyzed by Microsoft® Excel and Prism 6 (Graphpad®). The Michaelis-Menten plots and Ki of both inhibitors calculated under non-linear regression with competitive inhibition mode are shown in FIG. 5.

In assay [2] the target is T2, full length human OGT (ncOGT) (Homo sapiens, UniProt O15294).
T2 construct: made in house
T2 sequence (O15294 1-1046): T1 sequence (O15294 1-1046)
Description: UDP-Glo luminescence-based coupled enzyme assay. Format: biochemical. On the procedure:
UDP-Glo assay: Materials for this assay were obtained from Promega (catalog #V6961), and the experiment was performed largely as outlined by the manufacturer. IC50 values were determined in the range of 0 to 100 μM (eleven concentration points). Assays were performed either in white, 96-well or ½-volume 96-well, plates. This assay was run with 125 μM CKII3K peptide acceptor. Reaction volumes were between 14 (half volume plates) and 20 (normal volume plates) μL. Reactions contained the following components: 300 nM ncOGT, 125 μM CKII3K and 40 μM UDP-GlcNAc in 1× PBS pH 7.4 supplemented with 1 mM THP. Reactions were incubated for one hour at 25° C. and quenched by the addition of an equal volume of UDP-Glo nucleotide detection reagent, prepared and used according to manufacturer guidelines. The quenched reactions were then mixed briefly by shaking at 1800 rpm in a Thermomixer C, and incubated for one hour at room temperature prior to reading luminescence, as per the manufacturers guidelines. Data were analyzed by Microsoft Excel and Prism 6 (Graphpad). When evaluating the effect of sugar donor concentration, this parameter was varied, while all other conditions remained as described above. Each sample in this case was run in duplicate, unless otherwise specified. The 40 μM curve in FIG. 16C has each point in quadruplicate. Similarly, there is an n=9 for each point in the OSMI-1 curve in FIG. 16B.

For `COc1ccccc1[C@@H](NS(=O)(=O)c1ccc2[nH]c(=O)ccc2c1)C(=O)N(Cc1ccco1)Cc1cccs1` [OSMI-1, (R)—N-(furan-2-ylmethyl)-2-(2-methoxyphenyl)-2-(2-oxo-1,2-dihydroquinoline-6-sulfonamido)-N-(thiophen-2-ylmethyl)acetamide], the “Changes in bands detected by ConA, PHA-L, ECL, GSL-I, PNA or DBA” value in assay [1] is “minimal changes”. The half-maximal inhibitory concentration (IC50) (commonly the concentration that gives 50% inhibition) was 3 µM on ncOGT (6 μM UDP-GlcNAc, 18 μM GST-Nup62) and 2.7 µM in assay [2] (40 μM UDP-GlcNAc, 125 μM CKII3K peptide, read-out: IC50 against ncOGT, coupled enzyme assay). For the same compound, the inhibition constant Ki (as a rule, a dissociation constant, usually derived from enzyme kinetics or from competition with a known ligand) on ncOGT (non-linear regression, competitive inhibition fit, Nup62 substrate, read-out: Inhibition constant (Ki)) was determined as 0.4 µM. In addition, the “Mode of inhibition with respect to UDP-GlcNAc” value in assay [2] (various UDP-GlcNAc concentrations) was “did not act competitively”.
